Consider 14 compounds from article PMC4111244 (Bioorganic & medicinal chemistry letters, 2013).

Broadly, the EC50 is the concentration at which the effect is half-maximal. What is called pEC50 is the negative decadic logarithm of the EC50, by convention in mol/L.

pEC50: −log10 of the molar value. Read-outs that look alike come from different tables or passages of the source. Some results are limits rather than exact numbers.

The subject of one assay is T. cruzi. To be noted: ref previous studies; cited from earlier work.
Assay [1] concerns T. cruzi amastigotes. The assay can be described thus: Activity against T. cruzi amastigotes in culture. The class given is cell-based, Trypanosoma cruzi. The note with it: for fold increase in potency compared with compound 12: T. cruzi cultures; for EC50: Trypanosoma cruzi, read-out: T. cruzi EC50(nM), T. cruzi amastigotes in culture; for fold drop in potency on replacement of the aniline moiety: versus amino compound (compound 2).

Assay [2] concerns the target T. cruzi sterol 14α-demethylase (CYP51) (Trypanosoma cruzi, UniProt Q7Z1V1). The assay can be described thus: Spectral response. To be noted: P450 2.2 μM; titration range 0.4-7.6 μM.
Assay [3] has as its system T. cruzi amastigotes. To be noted: read-out: EC50 against T.cruzi in culture; cited from earlier work.

Sequence of T. cruzi sterol 14α-demethylase (CYP51) (Q7Z1V1 whole entry): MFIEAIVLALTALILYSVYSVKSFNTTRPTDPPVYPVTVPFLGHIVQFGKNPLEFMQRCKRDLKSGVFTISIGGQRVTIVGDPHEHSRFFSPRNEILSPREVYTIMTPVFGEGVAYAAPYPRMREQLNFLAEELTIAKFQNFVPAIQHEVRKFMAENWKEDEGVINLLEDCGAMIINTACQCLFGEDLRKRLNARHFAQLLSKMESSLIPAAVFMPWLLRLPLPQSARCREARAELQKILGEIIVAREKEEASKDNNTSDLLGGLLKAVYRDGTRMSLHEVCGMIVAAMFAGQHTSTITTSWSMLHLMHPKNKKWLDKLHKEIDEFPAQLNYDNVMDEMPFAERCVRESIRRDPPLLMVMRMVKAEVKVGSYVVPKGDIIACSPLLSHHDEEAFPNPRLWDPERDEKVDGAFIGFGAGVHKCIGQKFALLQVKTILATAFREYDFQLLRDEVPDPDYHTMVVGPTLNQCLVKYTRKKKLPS

As to `Nc1cc(-c2ccccc2)ccc1Cn1cncc1CNc1ccc(-c2nc3ccccc3s2)c(-c2ccccc2)c1` [Compound 2], the “efficacy in the acute model of the disease” value in the assay with T. cruzi is on record as “highly efficacious”. The “fold increase in potency compared with compound 12” value with T. cruzi amastigotes [1] (versus compound 12) was determined as 20 fold.

With `Nc1ccc(-c2cc(NCc3cncn3Cc3ccc(-c4ccccc4)cc3)ccc2-c2nc3ccccc3s2)cc1` [Compound 12k], the “fold increase in potency compared with compound 12” value in the assay on T. cruzi amastigotes [1] (versus compound 12) was greater than 10 fold.

Regarding `Fc1cc(-c2ccccc2)ccc1Cn1cncc1CNc1ccc(F)c(-c2ccccc2)c1` [Compound 24a], the EC50 in the assay on T. cruzi amastigotes [1] was less than 20 nM.

For `Fc1ccc(NCc2cncn2Cc2ccc(-c3ccccc3)cc2F)cc1` [Compound 24b], in the assay on T. cruzi amastigotes [1] (against T. cruzi, versus compound 12), the “fold drop in potency compared with compound 12” value is given as “less than 4 fold”.

`COc1cc(-c2ccccc2)ccc1Cn1cncc1CNc1ccc(Cl)c(-c2ccccc2)c1` [Compound 24n]: the “fold drop in potency on replacement of the aniline moiety” value (“fold drop in potency on replacement” for short) with T. cruzi amastigotes [1] is given as greater than 27 fold.

With `Oc1cc(-c2ccccc2)ccc1Cn1cncc1CNc1ccc(Cl)c(-c2ccccc2)c1` [Compound 24o], the “fold drop in potency on replacement” value in the assay on T. cruzi amastigotes [1] is on record as greater than 27 fold.

Take `O=C(O)c1cc(-c2ccccc2)ccc1Cn1cncc1CNc1ccc(-c2nc3ccccc3s2)c(-c2ccccc2)c1` [Compound 24q]: the “fold drop in potency on replacement” value in the assay on T. cruzi amastigotes [1] was greater than 27 fold.

Regarding `COc1ccc(NCc2cncn2Cc2ccc(-c3ccccc3)cc2N)nc1-c1ccccc1` [Compound 26c], the “binding to the haem moiety in the CYP51 active site (spectral type)” value in assay [2] is on record as “Soret Type II binding spectra”.

For `Nc1cc(-c2ccccc2)ccc1Cn1cncc1CNc1ccc(Cl)c(Cl)c1` [Compound 36f], the EC50 in the assay on T. cruzi amastigotes [1] is less than 10 nM.

Regarding `Nc1cc(-c2ccccc2)ccc1Cn1cncc1CNc1ccc(Cl)c(-n2ccnc2)c1` [Compound 36h], the EC50 with T. cruzi amastigotes [1] is less than 10 nM.

Regarding `Cc1cc(NCc2cncn2Cc2ccc(-c3ccccc3)cc2N)ccc1Cl` [Compound 36j], the “activity against T.cruzi amastigotes (in words)” value (“activity” below) in the assay with T. cruzi amastigotes [1] is “excellent activity”.

For `Nc1cc(-c2ccccc2)ccc1Cn1cncc1CNc1ccc(Cl)cc1` [Compound 36k], the “activity” value with T. cruzi amastigotes [1] is listed as “excellent activity”.

Consider `Nc1cc(-c2ccccc2)ccc1Cn1cncc1CNc1ccc(F)cc1` [Compound 36p], for which the “activity” value with T. cruzi amastigotes [1] is recorded as “excellent activity”.

With `CC[C@@H]([C@H](C)O)n1ncn(-c2ccc(N3CCN(c4ccc(OC[C@@H]5CO[C@@](Cn6cncn6)(c6ccc(F)cc6F)C5)cc4)CC3)cc2)c1=O` [posaconazole], the pEC50 in the assay on T. cruzi amastigotes [3] is greater than 9.00.
